For 24 molecules, IC50 results are on record in ChEMBL document CHEMBL5143605, “Discovery of 4-phenylindolines containing a (5-cyanopyridin-3-yl)methoxy moiety as potent inhibitors of the PD-1/PD-L1 interaction” (Bioorg Med Chem Lett, 2022).

This assay deals with Programmed cell death protein 1/Programmed cell death 1 ligand 1 (Homo sapiens, UniProt Q15116+Q9NZQ7). As to the kind of experiment: Inhibition of Tag2-PD1/Tag1-PD-L1 (unknown origin) protein-protein interaction preincubated for 15 mins followed by addition of anti-Tag1-Eu3+ and anti-Tag2-XL665 and measured after 2 hrs by HTRF analysis. Format: protein-complex assay.
Sequence of Programmed cell death protein 1/Programmed cell death 1 ligand 1 (Q15116 whole entry): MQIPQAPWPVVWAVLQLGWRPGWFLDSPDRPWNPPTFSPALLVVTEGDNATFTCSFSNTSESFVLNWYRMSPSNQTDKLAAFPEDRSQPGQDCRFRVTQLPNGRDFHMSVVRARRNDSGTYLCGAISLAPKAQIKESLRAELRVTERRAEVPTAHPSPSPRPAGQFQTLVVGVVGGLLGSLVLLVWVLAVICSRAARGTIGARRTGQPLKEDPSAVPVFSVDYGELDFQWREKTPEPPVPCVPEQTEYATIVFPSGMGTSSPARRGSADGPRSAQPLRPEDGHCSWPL
Sequence of Programmed cell death protein 1/Programmed cell death 1 ligand 1 (Q9NZQ7 whole entry): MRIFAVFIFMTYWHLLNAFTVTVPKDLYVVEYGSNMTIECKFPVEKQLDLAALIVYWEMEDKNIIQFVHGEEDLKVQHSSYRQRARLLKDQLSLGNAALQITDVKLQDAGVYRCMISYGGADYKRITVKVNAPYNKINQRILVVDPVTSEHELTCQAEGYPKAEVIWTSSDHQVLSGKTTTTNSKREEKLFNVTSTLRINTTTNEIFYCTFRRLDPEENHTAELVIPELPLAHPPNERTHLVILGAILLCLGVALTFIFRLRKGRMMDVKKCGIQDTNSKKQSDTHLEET
Usually IC50 stands for the concentration that inhibits the measured activity by half. A lower IC50 goes with greater potency in that assay. Consider `COc1cc(C(=O)N2CCc3c(-c4ccccc4)cccc32)ccc1CNCCO`, for which the IC50 turned out to be 161 nM.

The molecule `O=C(c1ccc(CNCCO)cc1)N1CCc2c(-c3cccc4[nH]ccc34)cccc21` had an IC50 of 635 nM.

Turning to `O=C(c1ccc(CNCCO)cc1)N1CCc2c(-c3ccc4nccnc4c3)cccc21`, the half-inhibitory concentration (IC50) was above 5000 nM.

Molecule `N#Cc1cncc(COc2cc(C(=O)N3CCc4c(-c5ccccc5)cccc43)ccc2CN2CC[C@H](C(=O)O)C2)c1` displayed an IC50 of 53.2 nM.

Take `N#Cc1cncc(COc2cc(C(=O)N3CCc4c(-c5ccccc5)cccc43)ccc2CN2CC[C@H](CO)C2)c1`: the IC50 was determined as 128 nM.

Turning to `N#Cc1cncc(COc2cc(C(=O)N3CCc4c(-c5ccccc5)cccc43)ccc2CN2CCC[C@H]2C(=O)O)c1`, the half-inhibitory concentration (IC50) was found to be 626 nM.

For the molecule `N#Cc1cncc(COc2cc(C(=O)N3CCc4c(-c5ccccc5)cccc43)ccc2CNCCO)c1`, the IC50 was found to be 87.3 nM.

In the case of `CN(CCO)Cc1ccc(C(=O)N2CCc3c(-c4ccccc4)cccc32)cc1OCc1cncc(C#N)c1`, it took 60.1 nM to reach half-maximal inhibition (IC50).

`O=C(c1ccc(CNCCO)cc1)N1CCc2c(-c3cnc4[nH]ccc4c3)cccc21` returned an IC50 of 876 nM.

In turn, `N#Cc1cc(COc2cc(C(=O)N3CCc4c(-c5ccccc5)cccc43)ccc2CNCCO)ccn1` gave an IC50 of 105 nM.

In turn, `COCCNCc1ccc(C(=O)N2CCc3c(-c4ccccc4)cccc32)cc1OCc1cncc(C#N)c1` yielded an IC50 of 251 nM.

`CC(=O)NCCNCc1ccc(C(=O)N2CCc3c(-c4ccccc4)cccc32)cc1OCc1ccnc(C#N)c1` registered an IC50 of 308 nM.

Consider `CC(=O)NCCNCc1ccc(S(=O)(=O)N2CCc3c(-c4ccccc4)cccc32)cc1`, for which the IC50 is above 5000 nM.

With `CC(C)(CO)NCc1ccc(C(=O)N2CCc3c(-c4ccccc4)cccc32)cc1OCc1cncc(C#N)c1`, the concentration for half-maximal inhibition (IC50) amounted to 116 nM.

`COc1cccc(-c2cccc3c2CCN3C(=O)c2ccc(CNCCO)cc2)n1` registered an IC50 above 5000 nM.

Take `O=C(c1ccc(CNCCO)cc1)N1CCc2c(-c3ccc4ocnc4c3)cccc21`: the IC50 was 192 nM.

Regarding `O=C(c1ccc(CNCCO)cc1)N1CCc2c(-c3ccncc3)cccc21`, the IC50 was above 5000 nM.

With `N#Cc1cncc(COc2cc(C(=O)N3CCc4c(-c5ccccc5)cccc43)ccc2CN2CC[C@@H](CO)C2)c1`, 132 nM corresponded to half-maximal inhibition (IC50).

`N#Cc1cncc(COc2cc(C(=O)N3CCc4c(-c5ccccc5)cccc43)ccc2CN2CC[C@@H](O)C2)c1`: the IC50 turned out to be 124 nM.

With `N#Cc1cncc(COc2cc(C(=O)N3CCc4c(-c5ccccc5)cccc43)ccc2CNC2CCOCC2)c1`, inhibition was half-maximal at 378 nM (IC50).

`N#Cc1cncc(COc2cc(C(=O)N3CCc4c(-c5ccccc5)cccc43)ccc2CN2CC[C@H](O)C2)c1` registered an IC50 of 74.6 nM.

Molecule `CC(=O)NCCNCc1ccc(C(=O)N2CCc3c(-c4ccccc4)cccc32)cc1OCc1cncc(C#N)c1` displayed an IC50 of 154 nM.

Consider `CC(C)(CO)NCc1ccc(S(=O)(=O)N2CCc3c(-c4ccccc4)cccc32)cc1`, for which the IC50 was above 5000 nM.

Molecule `CC(C)(CO)NCc1ccc(C(=O)N2CCc3c(-c4ccccc4)cccc32)cc1OCc1ccnc(C#N)c1` gave an IC50 of 229 nM.
